Source: patent US20110020470A1, “METHODS AND COMPOSITIONS FOR TREATING CANCER” (SOUND PHARMACEUTICALS INCORPORATED, priority 2005, published 2011)

Key:
[1] = tested on: rSPI-tu epithelial ovarian cancer cells; test: MTT cytotoxicity study with ebselen and allopurinol; type: cell-based, rat; conditions: each drug 100 μM, no cisplatin/paclitaxel
Procedure: Each of the cell lines listed above was plated at a density of 3,500 cells per well in 96 well plates and incubated at 37° C. for 24 hours. […] After the one hour incubation, 50 μl of cisplatin and paclitaxel were added to the cell lines at the various concentrations shown in TABLE 2 to achieve an IC50 in the absence of other drugs. […]
[…], 10 μl of MTT (3-(4,5-dimethlythiazol-2-yl)-2,5-diphenyl […] bromide) working solution was added to each well (based on the instructions in the Chemicon MTT Cell Growth Kit Cat #CT01) and the cells were incubated for 4 hours. 100 μl of isopropanol/HCl solution was then added to each well and absorbance at 570 nm was measured.

[2] = tested on: cochlear outer hair cells; test: Count of outer auditory hair cells in excised cochleae after cisplatin; type: in vivo, rat; conditions: cisplatin and ebselen versus cisplatin, saline and DMSO; FIG. 8A, 8B
Procedure: (§1) Auditory Evoked Brainstem Response (ABR) was used to assess hearing in rats before and after exposure to cisplatin and chemoprotectants. Ebselen or DMSO (control vehicle) were introduced intraperitoneally into rats one hour before intraperitoneal administration of cisplatin at a dosage of 16 mg/kg body weight. Seventy-two hours after delivery of cisplatin, ABR data were collected, animals were sacrificed, cochleae were collected, dissected, stained with FITC-phalloidin (to detect F-Actin in hair cells), and DAPI (to detect nuclear DNA).
Additionally, cochleae were excised from rats treated with the combination of cisplatin and ebselen as described in this Example. Cochleae were also excised from rats treated with cisplatin and saline and DMSO (control). The number of outer auditory hair cells in the excised cochlea were counted at intervals of 0.1 mm along the cochlea. Representative results from a control rat and a treated rat are shown in FIG. 8A and FIG. 8B, respectively.

non-cancer cell line = conditions: Baldew et al. 1992; cited from earlier work
[3] = tested on: ES-2 clear cell carcinoma ovarian cancer cells; test: MTT cytotoxicity study with ebselen and allopurinol; type: cell-based, human; conditions: each drug 100 μM, no cisplatin/paclitaxel
Procedure: (§2) Each of the cell lines listed above was plated at a density of 3,500 cells per well in 96 well plates and incubated at 37° C. for 24 hours. […] After the one hour incubation, 50 μl of cisplatin and paclitaxel were added to the cell lines at the various concentrations shown in TABLE 2 to achieve an IC50 in the absence of other drugs. The cells were then incubated at 37° C. in 5% CO2 in the presence of the cisplatin and paclitaxel for an additional 67-72 hours. Control wells were included as follows: no drug, ebselen, allopurinol, ebselen and allopurinol, and cisplatin/paclitaxel.
(§3) After the 67-72 hour incubation period, 10 μl of MTT (3-(4,5-dimethlythiazol-2-yl)-2,5-diphenyl […] bromide) working solution was added to each well (based on the instructions in the Chemicon MTT Cell Growth Kit Cat #CT01) and the cells were incubated for 4 hours. 100 μl of isopropanol/HCl solution was then added to each well and absorbance at 570 nm was measured. The results of the MTT assay for the different ovarian cancer cell lines tested are shown in FIGS. 9A-16C and are summarized below in TABLE 3.

[4] = tested on: TOV-112D adenocarcinoma/endometroid carcinoma ovarian cancer cells; test: as above; type: cell-based, human; conditions: each drug 100 μM, no cisplatin/paclitaxel
Procedure: as §2, §3

[5] = tested on: CAOV-3 adenocarcinoma ovarian cancer cells; test: as above; type: cell-based, human; conditions: each drug 100 μM, no cisplatin/paclitaxel
Procedure: as §2, §3

[6] = tested on: OV-90 papillary serous adenocarcinoma ovarian cancer cells; test: as above; type: cell-based, human; conditions: each drug 100 μM, no cisplatin/paclitaxel
Procedure: as §2, §3

[7] = tested on: SKOV-3 adenocarcinoma ovarian cancer cells; test: as above; type: cell-based, human; conditions: each drug 100 μM, no cisplatin/paclitaxel
Procedure: as §2, §3

[8] = tested on: TOV-21G adenocarcinoma/clear cell carcinoma ovarian cancer cells; test: as above; type: cell-based, human; conditions: each drug 100 μM, no cisplatin/paclitaxel
Procedure: as §2, §3

[9] = tested on: OVCAR-3 adenocarcinoma ovarian cancer cells; test: as above; type: cell-based, human; conditions: each drug 100 μM, no cisplatin/paclitaxel
Procedure: as §2, §3

inner ear hair cells = test: Cochlea explant culture, inner ear hair cell count (calbindin/DAPI); type: cell-based, mouse; conditions: FIG. 5
Procedure: Three cochlea per treatment, obtained from P3-4 mouse pups, were cultured in 0.4 micrometer MilliCell-CM inserts with NeuroBasal A medium plus B27 supplement. After 24 hours in culture, ebselen was added to the medium, incubated for ten minutes, and then cisplatin was added to the medium at a final concentration of 43 μM. A first control treatment included 43 μM cisplatin. A second control treatment included 47 μM ebselen without the addition of cisplatin. All cultures were incubated for 24 hours at 37° C. in 5% carbon dioxide.
The explants were then harvested, fixed, and stained with calbindin (which detects hair cells) and DAPI (4′,6-Diamindino-2-phenylindole; for detection of nuclear DNA).

[10] = treatment of acute ischemic stroke; cited from earlier work
[11] = tested on: NuTu-19 ovarian cancer cells; test: MTS cell viability assay, cultured NuTu-19 cells; type: cell-based, rat; conditions: for effect on the ability of cisplatin to kill NuTu-19 cells: with cisplatin 43 μM, FIG. 2 and 3
Procedure: NuTu-19 cells were plated at a density of 3,000 cells per well in 96 well culture dishes, and incubated at 37° C., in the presence of 5% carbon dioxide, for 24 hours. […] The NuTu-19 cells were then rinsed with media and incubated in the presence of cisplatin for an additional 24 hours.
The NuTu-19 cells were then rinsed twice with phosphate buffered saline (PBS), then MTS assays were performed to measure the number of living cells. MTS is an abbreviation for (3-(4,5-dimethylthiazol-2-yl)-5-(3-carboxymethoxyphenyl)-2-(4-sulfophenyl)-2H-tetrazolium. The MTS assay is a colorimetric method for determining the number of viable cells based upon physiologic catabolism of MTS to a formazan product that is soluble in tissue culture medium. The absorbance of the formazan product at 490 nm can be measured directly from a 96 well plate using a plate reader. Increased absorbance at 490 nm correlates with increased production of formazan in a well. This is typically due to more viable cells present in a well.

[12] = tested on: mammalian ovarian cancer cell lines; test: MTT cytotoxicity study, statements over all ovarian cancer cell lines tested; type: cell-based
Procedure: Each of the cell lines listed above was plated at a density of 3,500 cells per well in 96 well plates and incubated at 37° C. for 24 hours. […] After the one hour incubation, 50 μl of cisplatin and paclitaxel were added to the cell lines at the various concentrations shown in TABLE 2 to achieve an IC50 in the absence of other drugs. The cells were then incubated at 37° C. in 5% CO2 in the presence of the cisplatin and paclitaxel for an additional 67-72 hours.
After the 67-72 hour incubation period, 10 μl of MTT (3-(4,5-dimethlythiazol-2-yl)-2,5-diphenyl […] bromide) working solution was added to each well (based on the instructions in the Chemicon MTT Cell Growth Kit Cat #CT01) and the cells were incubated for 4 hours. 100 μl of isopropanol/HCl solution was then added to each well and absorbance at 570 nm was measured.

[13] = tested on: rats treated with cisplatin; test: Auditory Evoked Brainstem Response (ABR), permanent threshold shift after cisplatin; type: in vivo, rat; conditions: 8, 16, 24, 32 kHz; ebselen 16 mg/kg i.p. plus cisplatin 16 mg/kg i.p., versus cisplatin without ebselen; 72 hours; FIG. 6
Procedure: as §1
Ten cochlea were tested per treatment. The PTS is a measure of hearing loss.
Four cochlea were tested per treatment.

[14] = patients receiving cisplatin; Helson 1978; cited from earlier work
NuTu-19 tumors = test: NuTu-19 ovarian cancer tumor model in F-344 rats, tumor response; type: in vivo, rat
Procedure: An ovarian cancer tumor model was established in rats by injection of 10^7 NuTu-19 cells into the peritoneal cavity of 8-10 week old female F-344 rats. Rats with injected NuTu-19 cells were allowed to develop tumor burden for two weeks prior to cisplatin treatment. A control series of 10 rats was evaluated separately for the development of ovarian tumor burden under the described conditions. All rats in the control series were sacrificed 5 weeks after NuTu-19 tumor cell injection and tumor burden was evaluated.
The absence of ascites, but presence of more than 5 visible tumor nodules (each >0.5 mm) in the peritoneal cavity was considered to be an indication that the cancer partially responded to the treatment. The absence of ascites and presence of fewer than 5 visible tumor nodules (each >0.5 mm) was considered to be an indication that the cancer fully responded to the treatment.

[15] = all cell lines tested, concentration range from 20 μM to 100 μM

Structure (SMILES) | Percent live cells after 96 hour drug treatment [1] [%] | Percent live cells after 96 hour drug treatment [3] [%] | Percent live cells after 96 hour drug treatment [4] [%] | Percent live cells after 96 hour drug treatment [5] [%] | Percent live cells after 96 hour drug treatment [6] [%] | Percent live cells after 96 hour drug treatment [7] [%] | Percent live cells after 96 hour drug treatment [9] [%] | effect on the ability of cisplatin to kill NuTu-19 cells [11] | cytotoxicity on the ovarian cancer cell lines [12, 15] | other results
O=c1c2ccccc2[se]n1-c1ccccc1 [ebselen, 2-phenyl-1,2-benzoisoselenazol-3(2H)-one] | ~20 | ~20 | ~18 | ~0 | ~40 | ~40 | ~20 | does not inhibit the ability of cisplatin to kill NuTu-19 ovarian cancer tumor cells | induced dose-dependant cytotoxicity | percentage of outer hair cells missing in cochleae [2]: less; toxicity in a non-cancer cell line (non-cancer cell line): non-toxic; Percent live cells after 96 hour drug treatment [8]: ~18%; protection of inner ear hair cells from damage by cisplatin (inner ear hair cells; 47 μM ebselen plus 43 μM cisplatin, 24 hours, in vitro): protects inner ear hair cells from damage by cisplatin; cytotoxic effect on cochlear inner ear cells (inner ear hair cells; ebselen 47 μM without cisplatin): does not appear to have a cytotoxic effect; adverse events in human clinical testing [10]: no adverse events were identified; effect on the chemotherapeutic activity of cisplatin and paclitaxel in multi-drug chemotherapy resistant cell lines ([12]; ES-2, SKOV-3 and OVCAR-3): enhanced the chemotherapeutic activity of cisplatin and paclitaxel; effect on the chemotherapeutic effect of cisplatin plus paclitaxel [12, 15]: enhances the chemotherapeutic effect of cisplatin plus paclitaxel; permanent threshold shift (PTS) in hearing [13]: PTS is less
Oc1ncnc2[nH]ncc12 [allopurinol] | ~80 | ~90 | ~100 | ~80 | ~100 | ~90 | ~100 | does not inhibit the ability of cisplatin to kill NuTu-19 ovarian cancer tumor cells | did not have a toxic effect | –
N.N.[Cl][Pt][Cl] [cisplatin, cis-diaminedichloroplatinum] | – | – | – | – | – | – | – | – | – | patients who experience significant hearing loss [14]: up to 90%; Tumor Response % Complete (NuTu-19 tumors; rats that showed no sign of tumor burden): 57%; Tumor Response % Partial (NuTu-19 tumors; rats that showed some evidence of tumor burden): 43%; Tumor Response % No (NuTu-19 tumors; rats with tumors not responsive to cisplatin treatment): 0%; killing of cultured NuTu-19 ovarian cancer cells ([11]; incubation for 24 hours in the presence of cisplatin, FIG. 1): killed
